Measured values taken from patent publication US20210244686A1, “Novel Systems And Methods For The Therapeutic Use of Cannabinoids or Cannabinoid Analogs to Increase The Lipid Order of Cholesterol Containing Cell Membranes” (The Regents of the University of Colorado a body corporate, priority 2018, published 2021).

Test system: SK-N-BE(2) cells
Assay: 13C glucose labelled lipidomics of cholesterol biosynthesis
Format: cell-based, human
Details: 20 μM CBD, 24 hours
Protocol: These findings raise the question of whether CBD treatment leads to alterations in lipid and cholesterol metabolism (the latter pathway depicted in FIG. 3A). The present inventors used mass spectrometry-based lipidomics, a subset of metabolomics, to quantify the effect of CBD on the fluxes of key lipids and sterols. Vehicle and CBD exposed cells were fed ^13C labeled glucose for 24 hours and harvested using methanol extraction and mass spectrometry analysis. Cholesterol biosynthesis was analyzed by determining the level of incorporation of ^13C into biosynthetic intermediates. […] The effect of CBD on total cellular cholesterol was confirmed using a fluorogenic assay for cholesterol in an orthogonal experiment (FIG. 11B).
Cultured cells were harvested, washed with PBS, flash frozen, and stored at −80 C. until analysis. Prior to LC-MS analysis, samples were placed on ice and re-suspended with methanol:acetonitrile:water (5:3:2, v/v/v) at a concentration of 2 million cells per ml. Suspensions were vortexed continuously for 30 min at 4° C. Insoluble material was removed by centrifugation at 10,000 g for 10 min at 4° C. and supernatants were isolated for metabolomics analysis by UHPLC-MS. This method was used for cholesterol precursors and free headgroups. […]

C=C(C)[C@@H]1CCC(C)=C[C@H]1c1c(O)cc(CCCCC)cc1O [CBD, cannabidiol]
labeled and total cholesterol: decrease
total and isotopically-labeled levels of cholesterol precursors: accumulate
